Assay results published in PMC7413254 (Nature Communications, 2020).
Read-outs that look alike come from different tables or passages of the source.

Tests used:
[1] = test system: non-expressing oocytes; test: cells; assay type: cell-based, Xenopus laevis; conditions: non-expressing oocytes, total [3H]CQ transport, normalised to the oocyte type control
Summary of the method: (§1)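 Using pH 5.5 ND96 at 27.5 °C, uptake is followed for 1.5 h, stopped with ice-cold buffer, and quantified as accumulated radioactivity per oocyte after SDS lysis.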

[2] = target: T1, PfCRT^3D7 (Plasmodium falciparum, UniProt Q8IBZ9); test: cell-based; assay type: cell-based; conditions: PfCRT3D7 oocytes, total [3H]CQ transport, normalised to the oocyte type control
T1 sequence (Q8IBZ9 59-398): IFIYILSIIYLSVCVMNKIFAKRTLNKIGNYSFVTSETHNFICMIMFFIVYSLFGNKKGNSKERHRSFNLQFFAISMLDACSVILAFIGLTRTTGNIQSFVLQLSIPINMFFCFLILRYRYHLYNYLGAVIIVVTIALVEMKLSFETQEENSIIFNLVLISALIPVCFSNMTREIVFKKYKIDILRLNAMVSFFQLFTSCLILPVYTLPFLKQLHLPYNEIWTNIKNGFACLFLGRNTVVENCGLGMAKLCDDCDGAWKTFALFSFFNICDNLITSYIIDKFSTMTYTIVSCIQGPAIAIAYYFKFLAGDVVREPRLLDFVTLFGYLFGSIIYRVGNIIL
Summary of the method: as §1

[3] = test system: non-expressing oocytes; assay type: cell-based, Xenopus laevis; conditions: non-expressing oocytes, total [3H]CQ transport, normalised to the oocyte type control
Summary of the method: (§2)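 Oocytes (ten per treatment, ≥4 independent frogs/days) were preloaded by injecting VF-6 in 25 nL ND96 at pH 5.0, 5.5, 6.0 or 7.0, or Na^+-free choline buffer, then uptake run 1.5 h, 27.5 °C, ND96 pH 5.5 by default. Internal concentrations assumed ~400 nL oocyte volume.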

[4] = target: T2, PfCRT^Ecu1110 (Plasmodium falciparum, UniProt Q9N623, A220S/I356L/K76T/N326D); test: [3H]CQ uptake into Xenopus oocytes, cis-inhibition by unlabelled solute; assay type: cell-based; conditions: for Uptake of [3H]CQ (% PfCRTEcu1110 control), cis-inhibition / PfCRT-mediated [3H]CQ transport, cis-inhibition (% PfCRTEcu1110 control): PfCRTEcu1110 oocytes; for Uptake of [3H]CQ (% PfCRTEcu1110 control), cis-inhibition: total [3H]CQ transport, normalised to the oocyte type control; for PfCRT-mediated [3H]CQ transport, cis-inhibition (% PfCRTEcu1110 control): background [3H]CQ accumulation subtracted, normalised to oocyte type control; for [3H]CQ transport (% PfCRTEcu1110 control), cis-inhibition, PfCRTEcu1110: PfCRT-mediated component (background subtracted), sheet title says normalised to PfCRTDd2 control, mean ± SEM, SEM
T2 sequence (Q9N623 whole entry A220S/I356L/K76T/N326D): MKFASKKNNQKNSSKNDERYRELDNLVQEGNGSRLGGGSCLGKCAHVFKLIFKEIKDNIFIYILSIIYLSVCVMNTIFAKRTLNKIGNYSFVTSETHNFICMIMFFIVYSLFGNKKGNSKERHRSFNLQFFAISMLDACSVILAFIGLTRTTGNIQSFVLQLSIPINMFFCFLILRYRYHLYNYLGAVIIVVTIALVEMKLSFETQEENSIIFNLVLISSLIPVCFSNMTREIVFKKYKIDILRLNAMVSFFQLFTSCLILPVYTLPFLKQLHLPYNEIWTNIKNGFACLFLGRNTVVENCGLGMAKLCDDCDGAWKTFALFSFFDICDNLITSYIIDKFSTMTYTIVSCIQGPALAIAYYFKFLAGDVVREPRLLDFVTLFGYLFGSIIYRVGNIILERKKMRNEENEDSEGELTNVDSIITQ
Summary of the method: as §1

[5] = target: T3, PfCRT^Dd2 (Plasmodium falciparum, UniProt Q9N623, A220S/I356T/K76T/M74I/N326S/N75E/Q271E/R371I); test: as above; assay type: cell-based; conditions: PfCRTDd2 oocytes, background [3H]CQ accumulation subtracted, normalised to oocyte type control
T3 sequence (Q9N623 whole entry A220S/I356T/K76T/M74I/N326S/N75E/Q271E/R371I): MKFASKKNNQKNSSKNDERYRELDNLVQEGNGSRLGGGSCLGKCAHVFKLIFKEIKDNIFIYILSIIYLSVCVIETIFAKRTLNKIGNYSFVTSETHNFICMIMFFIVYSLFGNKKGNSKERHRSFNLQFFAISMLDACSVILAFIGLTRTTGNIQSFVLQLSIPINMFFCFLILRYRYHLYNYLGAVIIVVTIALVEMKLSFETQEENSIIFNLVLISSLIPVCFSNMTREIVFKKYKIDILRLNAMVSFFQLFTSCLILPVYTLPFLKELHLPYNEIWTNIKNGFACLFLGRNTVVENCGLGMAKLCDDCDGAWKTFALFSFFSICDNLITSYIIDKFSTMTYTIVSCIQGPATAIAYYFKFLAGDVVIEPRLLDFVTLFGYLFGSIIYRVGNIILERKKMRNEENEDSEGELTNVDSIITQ
Summary of the method: as §1

[6] = target: T2, PfCRT^Ecu1110; test: cell-based; assay type: cell-based; conditions: for Uptake of [3H]CQ (% PfCRTEcu1110 control), trans-stimulation / PfCRT-mediated [3H]CQ transport, trans-stimulation (% PfCRTEcu1110 control): PfCRTEcu1110 oocytes; for Uptake of [3H]CQ (% PfCRTEcu1110 control), trans-stimulation: total [3H]CQ transport, normalised to the oocyte type control; for PfCRT-mediated [3H]CQ transport, trans-stimulation (% PfCRTEcu1110 control): normalised to oocyte type control; for [3H]CQ transport (% PfCRTDd2 control), trans-stimulation, PfCRTEcu1110: PfCRT-mediated component (background subtracted), sheet title says normalised to PfCRTDd2 control, mean ± SEM, SEM
Summary of the method: as §2

[7] = target: T3, PfCRT^Dd2; test: cell-based; assay type: cell-based; conditions: for Uptake of [3H]CQ (% PfCRTDd2 control), trans-stimulation / PfCRT-mediated [3H]CQ transport, trans-stimulation (% PfCRTDd2 control): PfCRTDd2 oocytes; for Uptake of [3H]CQ (% PfCRTDd2 control), trans-stimulation: total [3H]CQ transport, normalised to the oocyte type control; for PfCRT-mediated [3H]CQ transport, trans-stimulation (% PfCRTDd2 control): normalised to oocyte type control; for [3H]CQ transport (% PfCRTDd2 control), trans-stimulation, PfCRTDd2: PfCRT-mediated component (background subtracted), mean ± SEM, SEM
Summary of the method: as §2

[8] = target: T4, PfNT1 (Plasmodium falciparum, UniProt Q8IDM6); test: cell-based; assay type: cell-based; conditions: PfNT1 oocytes, total [3H]CQ transport, normalised to the oocyte type control
T4 construct: expressed in transfected cells; host or cells: Xenopus laevis oocytes (stage V-VI), cRNA-injected
T4 sequence (Q8IDM6 whole entry): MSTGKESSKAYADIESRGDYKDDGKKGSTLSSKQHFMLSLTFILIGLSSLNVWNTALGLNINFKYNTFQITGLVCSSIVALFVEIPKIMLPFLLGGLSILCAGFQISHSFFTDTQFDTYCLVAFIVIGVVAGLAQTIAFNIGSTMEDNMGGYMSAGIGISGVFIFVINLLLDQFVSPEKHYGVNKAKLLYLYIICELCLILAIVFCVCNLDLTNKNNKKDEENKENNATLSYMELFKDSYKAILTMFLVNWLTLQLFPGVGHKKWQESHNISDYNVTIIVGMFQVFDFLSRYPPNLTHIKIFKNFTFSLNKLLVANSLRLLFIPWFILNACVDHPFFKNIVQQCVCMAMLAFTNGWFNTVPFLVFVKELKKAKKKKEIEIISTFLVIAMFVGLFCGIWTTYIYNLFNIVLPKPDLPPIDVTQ
Summary of the method: as §2

[9] = target: T1, PfCRT^3D7; test: cell-based; assay type: cell-based; conditions: for Uptake of [3H]CQ (% PfCRT3D7 control), trans-stimulation / PfCRT-mediated [3H]CQ transport, trans-stimulation (% PfCRT3D7 control): PfCRT3D7 oocytes; for Uptake of [3H]CQ (% PfCRT3D7 control), trans-stimulation: total [3H]CQ transport, normalised to the oocyte type control; for PfCRT-mediated [3H]CQ transport, trans-stimulation (% PfCRT3D7 control): normalised to oocyte type control
Summary of the method: as §2

[10] = [test solute]i = 45 mM (30 mM for some solutes due to solubility)
[11] = [test solute]i = 5 mM (intracellular)
[12] = [test solute]i = 45 mM (intracellular; 30 mM for some solutes due to solubility)
[13] = [test solute]i = 5 mM (injected)

## PHFD [PD-4]
[1]; [test solute] = 0.5 mM
  Uptake of [3H]CQ (% non-expressing oocyte control), cis-inhibition: 100 ± 4.3 % non-expressing oocyte control
[1]; [test solute] = 1 mM
  Uptake of [3H]CQ (% non-expressing oocyte control), cis-inhibition: 100 ± 3.7 % non-expressing oocyte control
[1]; [test solute] = 2 mM
  Uptake of [3H]CQ (% non-expressing oocyte control), cis-inhibition: 100 ± 4.6 % non-expressing oocyte control
[2]; [test solute] = 0.5 mM
  Uptake of [3H]CQ (% PfCRT3D7 control), cis-inhibition: 98 ± 5.6 % PfCRT3D7 control
[2]; [test solute] = 1 mM
  Uptake of [3H]CQ (% PfCRT3D7 control), cis-inhibition: 100 ± 5.5 % PfCRT3D7 control
[2]; [test solute] = 2 mM
  Uptake of [3H]CQ (% PfCRT3D7 control), cis-inhibition: 99 ± 3.5 % PfCRT3D7 control
[3]; [test solute]i = 5 mM
  Uptake of [3H]CQ (% non-expressing oocyte control), trans-stimulation: 98 ± 2.0 % non-expressing oocyte control
[3]; [10]
  Uptake of [3H]CQ (% non-expressing oocyte control), trans-stimulation: 99 ± 3.7 % non-expressing oocyte control
[4]; [test solute] = 0.5 mM
  Uptake of [3H]CQ (% PfCRTEcu1110 control), cis-inhibition: 54 ± 3.1 % PfCRTEcu1110 control
  PfCRT-mediated [3H]CQ transport, cis-inhibition (% PfCRTEcu1110 control): 49 ± 2.1 % PfCRTEcu1110 control
  [3H]CQ transport (% PfCRTEcu1110 control), cis-inhibition, PfCRTEcu1110: 15 ± 0.5 % PfCRTEcu1110 control
[4]; [test solute] = 1 mM
  Uptake of [3H]CQ (% PfCRTEcu1110 control), cis-inhibition: 38 ± 3.1 % PfCRTEcu1110 control
  PfCRT-mediated [3H]CQ transport, cis-inhibition (% PfCRTEcu1110 control): 33 ± 1.5 % PfCRTEcu1110 control
  [3H]CQ transport (% PfCRTEcu1110 control), cis-inhibition, PfCRTEcu1110: 10 ± 0.1 % PfCRTEcu1110 control
[4]; [test solute] = 2 mM
  Uptake of [3H]CQ (% PfCRTEcu1110 control), cis-inhibition: 27 ± 0.8 % PfCRTEcu1110 control
  PfCRT-mediated [3H]CQ transport, cis-inhibition (% PfCRTEcu1110 control): 24 ± 1.1 % PfCRTEcu1110 control
  [3H]CQ transport (% PfCRTEcu1110 control), cis-inhibition, PfCRTEcu1110: 8.0 ± 0.06 % PfCRTEcu1110 control
[5]; [test solute] = 0.5 mM
  PfCRT-mediated [3H]CQ transport, cis-inhibition (% PfCRTDd2 control): 56 ± 1.1 % PfCRTDd2 control
[5]; [test solute] = 1 mM
  PfCRT-mediated [3H]CQ transport, cis-inhibition (% PfCRTDd2 control): 42 ± 0.5 % PfCRTDd2 control
[5]; [test solute] = 2 mM
  PfCRT-mediated [3H]CQ transport, cis-inhibition (% PfCRTDd2 control): 17 ± 0.7 % PfCRTDd2 control
[6]; [test solute]i = 5 mM
  Uptake of [3H]CQ (% PfCRTEcu1110 control), trans-stimulation: 98 ± 1.4 % PfCRTEcu1110 control
[6]; [10]
  Uptake of [3H]CQ (% PfCRTEcu1110 control), trans-stimulation: 100 ± 3.5 % PfCRTEcu1110 control
  [3H]CQ transport (% PfCRTDd2 control), trans-stimulation, PfCRTEcu1110: 30 ± 1.6 % PfCRTEcu1110 control
[6]; [11]
  PfCRT-mediated [3H]CQ transport, trans-stimulation (% PfCRTEcu1110 control): 96 ± 3.2 % PfCRTEcu1110 control
[6]; [12]
  PfCRT-mediated [3H]CQ transport, trans-stimulation (% PfCRTEcu1110 control): 98 ± 4.3 % PfCRTEcu1110 control
[6]; [13]
  [3H]CQ transport (% PfCRTDd2 control), trans-stimulation, PfCRTEcu1110: 29 ± 1.4 % PfCRTEcu1110 control
[7]; [test solute]i = 5 mM
  Uptake of [3H]CQ (% PfCRTDd2 control), trans-stimulation: 102 ± 2.4 % PfCRTDd2 control
[7]; [10]
  Uptake of [3H]CQ (% PfCRTDd2 control), trans-stimulation: 99 ± 2.9 % PfCRTDd2 control
  [3H]CQ transport (% PfCRTDd2 control), trans-stimulation, PfCRTDd2: 97 ± 2.8 % PfCRTDd2 control
[7]; [11]
  PfCRT-mediated [3H]CQ transport, trans-stimulation (% PfCRTDd2 control): 100 ± 4.2 % PfCRTDd2 control
[7]; [12]
  PfCRT-mediated [3H]CQ transport, trans-stimulation (% PfCRTDd2 control): 97 ± 2.8 % PfCRTDd2 control
[7]; [13]
  [3H]CQ transport (% PfCRTDd2 control), trans-stimulation, PfCRTDd2: 100 ± 4.2 % PfCRTDd2 control
[8]; [test solute]i = 5 mM
  Uptake of [3H]CQ (% PfNT1 control), trans-stimulation: 100 ± 3.5 % PfNT1 control
[8]; [10]
  Uptake of [3H]CQ (% PfNT1 control), trans-stimulation: 98 ± 2.2 % PfNT1 control
[9]; [test solute]i = 5 mM
  Uptake of [3H]CQ (% PfCRT3D7 control), trans-stimulation: 99 ± 3.6 % PfCRT3D7 control
[9]; [10]
  Uptake of [3H]CQ (% PfCRT3D7 control), trans-stimulation: 100 ± 2.1 % PfCRT3D7 control
[9]; SEM
  [3H]CQ transport (% PfCRT3D7 control), trans-stimulation, PfCRT3D7: 0.1 ± 0.02
[9]; [11]
  PfCRT-mediated [3H]CQ transport, trans-stimulation (% PfCRT3D7 control): 97 ± 2.9 % PfCRT3D7 control
[9]; [12]
  PfCRT-mediated [3H]CQ transport, trans-stimulation (% PfCRT3D7 control): 98 ± 4.2 % PfCRT3D7 control
